From patent publication US11091511B2, “Panaxdiol-type ginsenoside derivative, preparation method therefor and use thereof” (ARMY MEDICAL UNIVERSITY, priority 2016, dated 2021) come the findings set out here.

Marks after values point to notes of the source that are not given here.

In data set [1] the test system is RAW264.7 cell-derived foam cells. The experiment in a line: Formation of RAW264.7 cell-derived foam cells (ox-LDL, oil red O, absorbance 490 nm). Format: cell-based, mouse. The note with it: 48 hours, model group = 100%, x ± s, n = 3. As for the experimental part: The effects of the compounds prepared in Examples 1-30 of the present invention on the formation of RAW264.7 cell-derived foam cells, the specific steps are as follows:
1. Cell culture and foam cell model establishment:
RAW264.7 cells were cultured in DMEM culture medium with high glucose level (GIBCO) to a cell concentration of 1×10^6, planted in a 6-well plate, and 60 mg/L of ox-LDL (oxidized modified low-density lipoprotein, Peking Union Medical College) was added, foam cells were obtained after 48 hours of incubation.
2. Grouping and index detection:
The obtained foam cells were divided into 61 groups, 3 well plates were included in one group. After the treatment by adding the drugs (100 μL/well) for 48 hours, the medium was discarded, and after oil red 0 staining, the excess amount of oil red 0 was washed away. The cells were dissolved in isopropanol and the absorbance values were measured at 490 nm. The OD value of the model group was 100%, and the OD value of each group corrected by the number of cells was compared with the model group to obtain the ratio of intracellular lipid content. The larger the value, the more intracellular lipids, the higher the degree of formation of foam cells.
Normal saline control group: normal saline
Low dose groups of the compounds prepared in Examples 1-30 of the present invention:
10 μmol/L (solvents were normal saline).
High dose groups of compounds prepared in Examples 1-30 of the present invention: 30 μmol/L (solvents were normal saline).
Data were expressed as x±s, and SPSS 10.0 line single-factor analysis of variance was performed amoung groups, a significant difference was indicated when p<0.05.

The next data set deals with RAW264.7 cells. The experiment in a line: RAW264.7 cell survival rate by CCK8 method. In kind it is cell-based, mouse. The note with it: compound 10 prnol/L, 0.1% DMSO, CCK8, x ± s, n = 3, normal saline control = 1. The protocol:
In order to further verify the toxicities of the compounds prepared in Examples 1-30 of the present invention, the mouse macrophage cell line RAW264.7 was cultured, and the compounds prepared in Examples 1-30 of the invention were prepared to a concentration of […] using culture medium, wherein the solvent was normal saline, the co-solvent was dimethyl sulfoxide (DMSO, the final concentratoin was 0.1%), and a 0.1% DMSO saline control group was provided. The cell survival rate was determined by CCK8 method. The data were expressed as x±s. SPSS 10.0 line single-factor analysis of variance was performed among groups. The difference was significant when p<0.05.

In the next data set the test system is TNF-α. Nature of the data set: Local TNF-α level in the arteries of apoE-/- mice (Millipore liquid phase chip). In kind it is in vivo, mouse. Conditions: high-fat diet, intragastric 15 weeks, compounds 30 mg/(kg·d), simvastatin 10 mg/(kg·d), x ± s, n = 5, saline control 25.58 ± 6.44. The text has this:
(§1) The effects of the compounds prepared in Examples 1-30 of the present invention on the percentages of areas of atherosclerotic plaque formation to the area of the entire artery in apoE−/− mice with a high-fat diet and the levels of low-density lipoprotein cholesterol and the levels of high-density lipoprotein, the specific steps are as follows: 1. animals: 160 ten-week-old, healthy and clean-grade apoE−/− mice (purchased from Peking University Experimental Animal Center), males, weight: 22-25 g, were housed in separate cages in a sterile laminar feeding room and fed freely. The mice were fed by a high-fat diet (conventional feed+0.15% cholesterol+21% lard) for 25 weeks, the room temperature was kept at 24° C., relative humidity: 50%, illumination time 7:30-19:30. 2. Grouping, administration method: after 10 weeks of feeding, the animals were divided into the following 32 groups (n=5) by weight in a balanced and random manner, and killed 15 weeks after administration. Normal saline control group: normal saline, intragastric administration. Positive control group: simvastatin 10 mg/(kg·d), intragastric administration. The compound groups prepared in Examples 1-30 of the present invention (30 groups in total): each was intragastric administered 30 mg/(kg·d). (3) Determination of TNF-α level: Millipore liquid phase chip method was used for the determination (Mcytomag-70K-3, Mouse Cytokine/Chemokine Magnetic Bead Panel). Data were expressed as x±s, and SPSS 10.0 line single-factor analysis of variance was performed among groups, a significant difference was indicated when p<0.05.

The test system of data set [2] is apoE−/− mice. The experiment in a line: Blood lipids (LDL-C, HDL-C) in apoE-/- mice on high-fat diet. Format: in vivo, mouse. The note with it: apoE-/- mice serum, intragastric 15 weeks, compounds 30 mg/(kg·d), simvastatin 10 mg/(kg·d), x ± s; for HDL-C: n = 5, saline control 3.74 ± 0.62; for LDL-C: n = 5, saline control 7.33 ± 1.03. The text has this:
The effects of the compounds prepared in Examples 1-30 of the present invention on the percentages of areas of atherosclerotic plaque formation to the area of the entire artery in apoE−/− mice with a high-fat diet and the levels of low-density lipoprotein cholesterol and the levels of high-density lipoprotein, the specific steps are as follows:
1. animals: 160 ten-week-old, healthy and clean-grade apoE−/− mice (purchased from Peking University Experimental Animal Center), males, weight: 22-25 g, were housed in separate cages in a sterile laminar feeding room and fed freely. The mice were fed by a high-fat diet (conventional feed+0.15% cholesterol+21% lard) for 25 weeks, the room temperature was kept at 24° C., relative humidity: 50%, illumination time 7:30-19:30.
2. Grouping, administration method:
after 10 weeks of feeding, the animals were divided into the following 32 groups (n=5) by weight in a balanced and random manner, and killed 15 weeks after administration.
Normal saline control group: normal saline, intragastric administration.
Positive control group: simvastatin 10 mg/(kg·d), intragastric administration.
The compound groups prepared in Examples 1-30 of the present invention (30 groups in total): each was intragastric administered 30 mg/(kg·d).
(2) Determination of the levels of total cholesterol (TC), low-density cholesterol lipoprotein (LDL-C) and high-density lipoprotein cholesterol (HDL-C): using ROCHE 7060 automatic biochemical analyzer for the determination.
Data were expressed as x±s, and SPSS 10.0 line single-factor analysis of variance was performed among groups, a significant difference was indicated when p<0.05.

Data set [3] has as its system apoE−/− mice. Nature of the data set: Atherosclerotic plaque area to total aortic area in apoE-/- mice on high-fat diet (Sudan IV staining). In kind it is in vivo, mouse. The note with it: intragastric 15 weeks, compounds 30 mg/(kg·d), simvastatin 10 mg/(kg·d), x ± s, n = 5, saline control 14.67 ± 3.58.
Description: as §1, with “(1) Analysis” for “(3) Determination”, “the area of atherosclerotic plaque and its percentage to total area: after the animals were killed, the aortas were separated, from the roots of the aortas to the terminal bifurcations of the abdominal aortas. After formalin fixation, the aortas were stained with Sudan IV, the red stained parts were the areas of atherosclerotic lesions. The percentage of the area of the lesion area to total area” for “TNF-α level: Millipore liquid phase chip method”, “calculated using Image Pro Plus 5.0 software.” for “used for the determination (Mcytomag-70K-3, Mouse Cytokine/Chemokine Magnetic Bead Panel).”

Regarding `COC(=O)[C@@H](NCCC[C@](C)(OC(C)=O)C1CC[C@]2(C)[C@@H]1C(OC(C)=O)CC1[C@@]3(C)CC[C@H](OC(C)=O)C(C)(C)C3CC[C@]12C)C(C)C` (stereo partly shown) [Compound 20], in data set [1] (dose 10 μmol/L), the “Foam cell formation (%)” value is 79 ± 15 ^a %. The “Foam cell formation (%)” value in data set [1] (dose 30 μmol/L) is reported as 63 ± 14 ^a %. In the data set on RAW264.7 cells, the “Cell Survival Rate” value turned out to be 1.02 ± 0.13. In the data set with TNF-α, the “TNF-α level (ng/g)” value is recorded as 15.98 ± 5.33 ^a ng/g. Further, in the data set with apoE−/− mice [2], the HDL-C is given as 4.72 ± 0.52 ^a mmol/L and the LDL-C is given as 6.62 ± 0.89 mmol/L. The “Plaque area/total aorta area (%)” value in the data set on apoE−/− mice [3] is 9.67 ± 2.98 ^a %.

With `COC(=O)[C@H](NCCC[C@](C)(O[C@H]1O[C@H](COC(C)=O)[C@@H](OC(C)=O)[C@H](OC(C)=O)[C@H]1OC(C)=O)C1CC[C@]2(C)[C@@H]1C(OC(C)=O)CC1[C@@]3(C)CC[C@H](OC(C)=O)C(C)(C)C3CC[C@]12C)[C@@H](C)O` (stereo partly shown) [Compound 6], the “Foam cell formation (%)” value in data set [1] (dose 10 μmol/L) is on record as 73 ± 16 ^a %. For the same compound, the “Foam cell formation (%)” value in data set [1] (dose 30 μmol/L) is 48 ± 14 ^a %. For the same compound, in the data set with RAW264.7 cells, the “Cell Survival Rate” value is recorded as 0.83 ± 0.09. In addition, the “TNF-α level (ng/g)” value in the data set with TNF-α is listed as 11.35 ± 4.97 ^a ng/g. In the data set with apoE−/− mice [2], the HDL-C is given as 5.51 ± 0.94 ^a mmol/L and the LDL-C is 6.04 ± 1.07 mmol/L. For the same compound, in the data set with apoE−/− mice [3], the “Plaque area/total aorta area (%)” value is listed as 8.16 ± 2.83 ^a %.

Consider `COC(=O)CNCCC[C@](C)(OC(C)=O)C1CC[C@]2(C)[C@@H]1C(OC(C)=O)CC1[C@@]3(C)CC[C@H](OC(C)=O)C(C)(C)C3CC[C@]12C` (stereo partly shown) [Compound 24], for which the “Foam cell formation (%)” value in data set [1] (dose 10 μmol/L) was 79 ± 18 ^a %. Besides, in data set [1] (dose 30 μmol/L), the “Foam cell formation (%)” value is 66 ± 16 ^a %. Also, in the data set with RAW264.7 cells, the “Cell Survival Rate” value was 0.89 ± 0.14. The “TNF-α level (ng/g)” value with TNF-α is 15.47 ± 2.88 ^a ng/g. Moreover, in the data set with apoE−/− mice [2], the HDL-C is on record as 4.68 ± 0.67 ^a mmol/L and the LDL-C is on record as 5.65 ± 1.04 ^a mmol/L. Besides, the “Plaque area/total aorta area (%)” value in the data set with apoE−/− mice [3] is 9.54 ± 2.65 ^a %.

Consider `CC(=O)OC1CC2[C@@]3(C)CC[C@H](OC(C)=O)C(C)(C)C3CC[C@@]2(C)[C@]2(C)CCC([C@](C)(CCC3OC3(C)C)OC(C)=O)[C@@H]12` (stereo partly shown) [Compound 17], for which the “Foam cell formation (%)” value in data set [1] (dose 10 μmol/L) is reported as 70 ± 15 ^a %. In addition, the “Foam cell formation (%)” value in data set [1] (dose 30 μmol/L) is on record as 55 ± 21 ^a %. Also, in the data set on RAW264.7 cells, the “Cell Survival Rate” value is given as 0.87 ± 0.07. The “TNF-α level (ng/g)” value with TNF-α is reported as 15.27 ± 4.65 ^a ng/g. Moreover, in the data set on apoE−/− mice [2], the HDL-C is listed as 5.55 ± 0.56 ^a mmol/L and the LDL-C is reported as 4.83 ± 1.51 ^a mmol/L. In addition, the “Plaque area/total aorta area (%)” value with apoE−/− mice [3] is reported as 8.53 ± 2.57 ^a %.

As to `CC(=O)OC1CC2[C@@]3(C)CC[C@H](OC(C)=O)C(C)(C)C3CC[C@@]2(C)[C@]2(C)CCC([C@](C)(CCC=C(C)C)OC(C)=O)[C@@H]12` (stereo partly shown) [Compound 16], the “Foam cell formation (%)” value is 81 ± 12% in data set [1] (dose 10 μmol/L) and 72 ± 21 ^a % in data set [1] (dose 30 μmol/L). For the same compound, the “Cell Survival Rate” value with RAW264.7 cells stood at 0.88 ± 0.01. Further, the “TNF-α level (ng/g)” value with TNF-α is 15.94 ± 4.29 ^a ng/g. For the same compound, the HDL-C with apoE−/− mice [2] is 4.12 ± 0.90 ^a mmol/L. For the same compound, the LDL-C in the data set with apoE−/− mice [2] is given as 5.18 ± 1.26 ^a mmol/L. The “Plaque area/total aorta area (%)” value in the data set on apoE−/− mice [3] is given as 10.41 ± 2.09 ^a %.

On to `COC(=O)[C@H](Cc1c[nH]cn1)NCCC[C@](C)(OC(C)=O)C1CC[C@]2(C)[C@@H]1C(OC(C)=O)CC1[C@@]3(C)CC[C@H](OC(C)=O)C(C)(C)C3CC[C@]12C` (stereo partly shown) [Compound 29], for which the “Foam cell formation (%)” value in data set [1] (dose 10 μmol/L) amounted to 85 ± 10%. Also, the “Foam cell formation (%)” value in data set [1] (dose 30 μmol/L) was 72 ± 18 ^a %. The “Cell Survival Rate” value in the data set with RAW264.7 cells came out at 1.00 ± 0.16. Also, in the data set with TNF-α, the “TNF-α level (ng/g)” value is listed as 14.93 ± 3.67 ^a ng/g. In addition, in the data set on apoE−/− mice [2], the HDL-C is 4.10 ± 0.78 ^a mmol/L and the LDL-C was 6.27 ± 1.59 mmol/L. In the data set on apoE−/− mice [3], the “Plaque area/total aorta area (%)” value is reported as 9.67 ± 2.51 ^a %.

As for `COC(=O)[C@H](NCCC[C@](C)(OC(C)=O)C1CC[C@]2(C)[C@@H]1C(OC(C)=O)CC1[C@@]3(C)CC[C@H](OC(C)=O)C(C)(C)C3CC[C@]12C)[C@@H](C)O` (stereo partly shown) [Compound 21], the “Foam cell formation (%)” value in data set [1] (dose 10 μmol/L) is reported as 65 ± 15 ^a %. Moreover, the “Foam cell formation (%)” value in data set [1] (dose 30 μmol/L) is given as 47 ± 13 ^a %. Also, in the data set on RAW264.7 cells, the “Cell Survival Rate” value is on record as 0.94 ± 0.17. Moreover, the “TNF-α level (ng/g)” value with TNF-α is reported as 10.76 ± 3.54 ^a ng/g. For the same compound, in the data set on apoE−/− mice [2], the HDL-C is recorded as 5.82 ± 0.95 ^a mmol/L and the LDL-C was 4.31 ± 1.84 ^a mmol/L. Besides, the “Plaque area/total aorta area (%)” value in the data set on apoE−/− mice [3] is reported as 8.28 ± 3.29 ^a %.
